This note sets out measurements from patent US9751854B2 (Millennium Pharmaceuticals, Inc., priority 2014, dated 2017).

Each structure is given as a SMILES string.

Usually IC50 stands for the concentration that gives 50% inhibition.

The target of the first experiment is human VPS34 (Homo sapiens (Human), UniProt Q8NEB9). Kind of experiment: Human VPS34 enzyme assay (Adapta TR-FRET ADP detection). Also noted: Percent Inhibition: dose or concentration left out as unconfirmed. The experiment is classed as biochemical.
Sequence of human VPS34 (Q8NEB9 whole entry): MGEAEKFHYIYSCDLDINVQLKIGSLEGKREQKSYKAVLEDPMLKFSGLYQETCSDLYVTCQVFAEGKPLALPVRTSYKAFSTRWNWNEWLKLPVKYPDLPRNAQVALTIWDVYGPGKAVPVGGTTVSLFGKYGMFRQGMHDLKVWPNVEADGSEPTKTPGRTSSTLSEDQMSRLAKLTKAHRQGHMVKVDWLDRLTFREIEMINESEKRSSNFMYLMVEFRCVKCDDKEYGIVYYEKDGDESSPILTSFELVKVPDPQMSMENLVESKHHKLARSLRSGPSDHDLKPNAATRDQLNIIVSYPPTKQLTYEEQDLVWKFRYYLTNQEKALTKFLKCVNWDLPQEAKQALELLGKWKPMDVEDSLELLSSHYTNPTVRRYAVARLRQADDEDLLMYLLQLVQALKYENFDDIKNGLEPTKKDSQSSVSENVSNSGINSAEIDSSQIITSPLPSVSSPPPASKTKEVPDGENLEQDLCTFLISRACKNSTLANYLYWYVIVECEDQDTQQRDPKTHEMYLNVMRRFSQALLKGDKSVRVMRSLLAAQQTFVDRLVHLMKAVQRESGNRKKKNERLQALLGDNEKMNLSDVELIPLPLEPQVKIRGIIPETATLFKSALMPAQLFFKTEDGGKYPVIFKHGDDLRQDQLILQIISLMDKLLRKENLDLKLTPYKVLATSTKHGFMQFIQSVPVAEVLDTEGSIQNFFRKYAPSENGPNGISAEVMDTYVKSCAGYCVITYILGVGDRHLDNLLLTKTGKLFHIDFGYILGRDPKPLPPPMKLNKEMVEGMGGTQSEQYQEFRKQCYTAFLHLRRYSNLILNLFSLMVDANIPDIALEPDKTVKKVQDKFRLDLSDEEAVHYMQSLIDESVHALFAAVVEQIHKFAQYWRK
Details: not given
(In general: In TR-FRET formats the signal depends on donor and acceptor labels being close together.)
On to `CC(=O)Nc1cc(-c2cnc(N)c(S(=O)(=O)NCC(C)C)c2)ccn1` [Compound I-73, N-[6-amino-5-(isobutylsulfamoyl)-3,4′-bipyridin-2′-yl]acetamide], for which the “Percent Inhibition” value is on record as more than 99%.

Still in this experiment, the particulars now being: IC50 range class.
For the compound `CC(=O)Nc1cc(-c2cnc(C)c(C(=O)N(C)c3ccc(F)cc3F)c2)ccn1` [Compound I-485, 2′-acetamido-N-(2,4-difluorophenyl)-N,6-dimethyl-3,4′-bipyridine-5-carboxamide], the concentration for half-maximal inhibition (IC50) fell in the range of 10 to 50 nM. The same measure, in the same setting: the same measure for `Cc1nccc(Nc2cc(-c3cnc(C)c(OC4CCCC4)c3)ccn2)n1` [Compound I-471, 5-(cyclopentyloxy)-6-methyl-N-(2-methylpyrimidin-4-yl)-3,4′-bipyridin-2′-amine]: 10 to 50 nM; for `CC(=O)Nc1cc(-c2cncc(N3CCCN(C)S3(=O)=O)c2)ccn1` [Compound I-452, N-[5-(6-methyl-1,1-dioxido-1,2,6-thiadiazinan-2-yl)-3,4′-bipyridin-2′-yl]acetamide]: 10 to 50 nM; for `CC(=O)Nc1cc(-c2cnc3c(c2)S(=O)(=O)N[C@@H](c2ccccc2)CO3)ccn1` [Compound I-334, (S)-N-[4-(1,1-dioxido-3-phenyl-3,4-dihydro-2H-pyrido[2,3-b][1,4,5]oxathiazepin-8-yl)pyridin-2-yl]acetamide]: more than 100 nM. With `COc1ccccc1S(=O)(=O)Nc1cc(-c2ccnc(NC(C)=O)c2)cnc1C` [Compound I-74, N-(5-{[(2-methoxyphenyl)sulfonyl]amino}-6-methyl-3,4′-bipyridin-2′-yl)acetamide], the IC50 was less than 10 nM.

Turning to `CC(=O)Nc1cc(-c2cnc(N)c(S(=O)(=O)NCC(C)C)c2)ccn1` [Compound I-73, N-[6-amino-5-(isobutylsulfamoyl)-3,4′-bipyridin-2′-yl]acetamide], the IC50 was less than 10 nM. Same read-out and setting: the same measure for `Cc1nccc(Nc2cc(-c3cnc(C)c(NC(=O)Nc4ccccc4)c3)ccn2)n1` [Compound I-439, 1-{6-methyl-2′-[(2-methylpyrimidin-4-yl)amino]-3,4′-bipyridin-5-yl}-3-phenylurea]: more than 100 nM; for `CC(=O)Nc1cc(-c2cc(NS(=O)(=O)N(C)C)c3ccnn3c2)ccn1` [Compound I-476, N-(4-{4-[(dimethylsulfamoyl)amino]pyrazolo[1.5-a]pyridin-6-yl}pyridin-2-yl)acetamide]: 10 to 50 nM. In turn, `CC(=O)Nc1cc(-c2cnc(Cl)c(NS(=O)(=O)c3ccc(C4CC4)cc3F)c2C)ccn1` [Compound I-335, N-(6-chloro-5-{[(4-cyclopropyl-2-fluorophenyl)sulfonyl]amino}-4-methyl-3,4′-bipyridin-2′-yl)acetamide] returned an IC50 of 10 to 50 nM. On to `CC(=O)Nc1cc(-c2cc(NS(=O)(=O)c3ccc(F)cc3F)c(C)[n+]([O-])c2)ccn1` [Compound I-258, N-[4-(5-{[(2,4-difluorophenyl)sulfonyl]amino}-6-methyl-1-oxidopyridin-3-yl)pyridin-2-yl]acetamide], for which the IC50 fell in the range of 10 to 50 nM. `Cc1c(-c2ccnc(Nc3ccnc(C4CC4)n3)c2)cnc(Cl)c1C(=O)N1CC(C)(C)C1` [Compound I-466, (6-chloro-2′-[(2-cyclopropylpyrimidin-4-yl)amino]-4-methyl-3,4′-bipyridin-5-yl](3,3-dimethylazetidin-1-yl)methanone] registered an IC50 of 10 to 50 nM. The same measure, in the same setting: next, `COc1ncc(-c2ccnc(NC(C)=O)c2)cc1S(=O)(=O)Nc1cc(F)ccc1F` [Compound I-358, N-{5-[(2,5-difluorophenyl)sulfamoyl]-6-methoxy-3,4′-bipyridin-2′-yl}acetamide]: 10 to 50 nM.

Regarding `CC(=O)Nc1cc(-c2cnc(C)c(NS(=O)(=O)c3cccc(F)c3)c2)ccn1` [Compound I-155, N-(5-{[(3-fluorophenyl)sulfonyl]amino}-6-methyl-3,4′-bipyridin-2′-yl)acetamide], the IC50 was less than 10 nM. In turn, `CC(=O)Nc1cc(-c2cnc(Cl)c(NS(=O)(=O)c3ccc(C(F)(F)F)cc3Cl)c2C)ccn1` [Compound I-333, N-(6-chloro-5-(2-chloro-4-(trifluoromethyl)phenylsulfonamido)-4-methyl-[3,4′-bipyridin]-2′-yl)acetamide] yielded an IC50 of 10 to 50 nM.

`Cc1ncc(-c2ccnc(Nc3ccnc(C(F)(F)F)n3)c2)cc1C(=O)N1CCC1` [Compound I-292, azetidin-1-yl(6-methyl-2′-[(2-(trifluoromethyl)pyrimidin-4-yl]amino}-3,4′-bipyridin-5-yl)methanone] yielded an IC50 of 10 to 50 nM. `CC(=O)Nc1cc(-c2cncc(N(C)S(C)(=O)=O)c2)ccn1` [Compound I-20, N-{5-[methyl(methylsulfonyl)amino]-3,4′-bipyridin-2′-yl}acetamide] registered an IC50 of 50 to 100 nM. On the same count and under the same terms, the same measure for `Cc1c(-c2ccnc(Nc3ncc(C#N)cn3)c2)cnc(Cl)c1NS(=O)(=O)c1ccc(F)cc1F` [Compound I-300, N-{6-chloro-2′-[(5-cyanopyrimidin-2-yl)amino]-4-methyl-3,4′-bipyridin-5-yl}-2,4-difluorobenzenesulfonamide]: 10 to 50 nM.

`CC(=O)Nc1cc(-c2cncc(S(=O)(=O)NC3C4CC5CC(C4)CC3C5)c2)ccn1` (stereo not drawn) [Compound I-318, N-[5-(adamantan-2-ylsulfamoyl)-3,4′-bipyridin-2′-yl]acetamide] came in with an IC50 of 10 to 50 nM. Regarding `CC(=O)Nc1cc(-c2cnc(C)c(Nc3nc4ccccc4o3)c2)ccn1` [Compound I-392, N-[5-(1,3-benzoxazol-2-ylamino)-6-methyl-3,4′-bipyridin-2′-yl]acetamide], the IC50 is more than 100 nM. Same read-out and setting: the same measure for `Cc1nccc(Nc2cc(-c3cnc(C)c(C(=O)N4CC5(COC5)C4)c3)ccn2)n1` [Compound I-415, {6-methyl-2′-[(2-methylpyrimidin-4-yl)amino]-3,4′-bipyridin-5-yl}(2-oxa-6-azaspiro[3,3]hept-6-yl)methanone]: 10 to 50 nM; for `Cc1nccc(Nc2cc(-c3cnc(C)c(C(=O)N4CCCCC4)c3)ccn2)n1` [Compound I-262, [6-methyl-2′-[(2-methylpyrimidin-4-yl)amino]-3,4′-bipyridin-5-yl](piperidin-1-yl)methanone]: 10 to 50 nM; for `CC(=O)Nc1cc(-c2cnc(C)c(NS(=O)(=O)c3cccc(C(F)(F)F)c3)c2)ccn1` [Compound I-168, N-[6-methyl-5-({[3-(trifluoromethyl)phenyl]sulfonyl}amino)-3,4′-bipyridin-2′-yl]acetamide]: less than 10 nM.

As for `CCc1ncc(-c2ccnc(NC(C)=O)c2)cc1NS(=O)(=O)c1ccc(F)cc1F` [Compound I-201, N-(5-{[(2,4-difluorophenyl)sulfonyl]amino}-6-ethyl-3,4′-bipyridin-2′-yl)acetamide], the IC50 was less than 10 nM. Take `CC(=O)Nc1cc(-c2cnc(N(C)C)c(C(=O)N(C)C)c2)ccn1` [Compound I-162, 2′-acetamido-6-(dimethylamino)-N,N-dimethyl-3,4′-bipyridine-5-carboxamide]: the IC50 was 10 to 50 nM. Turning to `Cc1nccc(Nc2cc(-c3cnc(Cl)c(S(=O)(=O)NC45CC(C4)C5)c3)ccn2)n1` [Compound I-242, N-(bicyclo[1.1.1]pent-1-yl)-6-chloro-2′-[(2-methylpyrimidin-4-yl)amino]-3,4′-bipyridine-5-sulfonamide], the half-inhibitory concentration (IC50) is 10 to 50 nM. Still for that read-out and setting: next, `CC(=O)Nc1cc(-c2cnc3[nH]ncc3c2)c(C)cn1` [Compound I-209, N-[5-methyl-4-(1H-pyrazolo[3,4-b]pyridin-5-yl)pyridin-2-yl]acetamide]: more than 100 nM; `CC(=O)Nc1cc(-c2cnc(N)c(C(=O)NCC3CC3)c2)ccn1` [Compound I-14, 2′-acetamido-6-amino-N-(cyclopropylmethyl)-3,4′-bipyridine-5-carboxamide]: 10 to 50 nM.

As for `CC(=O)Nc1cc(-c2cnc(C)c(N3CC(N(C)C)CS3(=O)=O)c2)ccn1` (single isomer, unassigned) [Compound I-496, N-(5-(4-(dimethylamino)-1,1-dioxidoisothiazolidin-2-yl)-6-methyl-[3,4′-bipyridin]-2′-yl)acetamide], the half-maximal inhibitory concentration (IC50) was 10 to 50 nM. With `CCNC(=O)Nc1cc(-c2ccnc(Nc3ccnc(C)n3)c2)cnc1C` [Compound I-367, 1-ethyl-3-{6-methyl-2′-[(2-methylpyrimidin-4-yl)amino]-3,4′-bipyridin-5-yl}urea], the IC50 was 50 to 100 nM.

Consider `CCN(CC)S(=O)(=O)c1cc(-c2ccnc(NC(C)=O)c2)cnc1C` [Compound I-370, N-[5-(diethylsulfamoyl)-6-methyl-3,4′-bipyridin-2′-yl]acetamide], for which the IC50 lay within 10 to 50 nM. Same read-out and setting: the same measure for `COc1ccc(S(=O)(=O)Nc2cc(-c3ccnc(NC(C)=O)c3)cnc2C)c(F)c1` [Compound I-163, N-(5-{[(2-fluoro-4-methoxyphenyl)sulfonyl]amino}-6-methyl-3,4′-bipyridin-2′-yl)acetamide]: less than 10 nM; for `Nc1cncc(-c2ccnc(N)c2)c1` [Compound I-231, 3,4′-bipyridine-2′,5-diamine]: more than 100 nM; for `CC(=O)Nc1cc(-c2cnc(N)c(S(=O)(=O)Cc3ccc(Cl)cc3)c2)ccn1` [Compound I-99, N-[6-amino-5-[(4-chlorobenzyl)sulfonyl]-3,4′-bipyridin-2′-yl]acetamide]: 10 to 50 nM. The same measure, in the same setting: the same measure for `CCCCN(CCCC)S(=O)(=O)Nc1cc(-c2ccnc(NC(C)=O)c2)cnc1C` [Compound I-350, N-{5-[(dibutylsulfamoyl)amino]-6-methyl-3,4′-bipyridin-2′-yl}acetamide]: less than 10 nM; for `CCOCCS(=O)(=O)c1cc(-c2ccnc(NC(C)=O)c2)cnc1N` [Compound I-145, N-{6-amino-5-[(2-ethoxyethyl)sulfonyl]-3,4′-bipyridin-2′-yl}acetamide]: 50 to 100 nM; for `Cc1nccc(Nc2cc(-c3cncc(C(C)OCc4ccccn4)c3)ccn2)n1` (stereo not drawn) [Compound I-349, N-(2-methylpyrimidin-4-yl)-5-[1-(pyridin-2-ylmethoxy)ethyl]-3,4′-bipyridin-2′-amine]: 10 to 50 nM.

Consider `CC(=O)Nc1cc(-c2cnc(C)c(N(CC3CC3)S(=O)(=O)C3CC3)c2)ccn1` [Compound I-83, N-{5-[(cyclopropylmethyl)(cyclopropylsulfonyl)amino]-6-methyl-3,4′-bipyridin-2′-yl}acetamide], for which the IC50 is more than 100 nM. Turning to `CC(=O)Nc1cc(-c2cnc(N)c(S(=O)(=O)NCCc3ccccc3)c2)ccn1` [Compound I-148, N-{6-amino-5-[(2-phenylethyl)sulfamoyl]-3,4′-bipyridin-2′-yl}acetamide], the IC50 was 10 to 50 nM.
